Structures can show the parent of a compound that is named as a salt.
How the values were obtained:
[1] = tested on: phenylbenzoquinone-induced writhing; assay: phenylbenzoquinone-induced writhing test in mice (analgesic activity); type: in vivo; conditions: ratio of activity relative to the parent NSAID; oral gavage 1 hour prior to i.p. phenylbenzoquinone; male CD-1 mice
Description: The phenylbenzoquinone-induced writhing test in mice was used to measure analgesic activity. The ability of the compounds to inhibit phenylbenzoquinone-induced writhing in mice was measured using the method of Siegmund et al, Proc. Soc. Exp. Biol. Med. 95: 729-731, 1957. Male CD-1 mice (Charles River Laboratories, Wilmington, Mass.) weighing 20-25 g were fasted overnight. Vehicle or compounds were administered by oral gavage 1 hour prior to i.p. injection of 2 mg/kg of phenylbenzoquinone. Five minutes after the i.p. injection of phenylbenzoquinone, the number of writhes in a 5 minute period was counted.

gastric lesion = assay: rat gastric lesion test; type: in vivo, rats
Description: The rat gastric lesion test, described by Kitagawa et al, J. Phirmacol. Exp. Ther., 253:1133-1137 (1990), and Al-Ghamdi et al, J. Int. Med. Res., 19:2242 (1991), was used to evaluate the activity of compounds to produce gastric lesion. Male Sprague Dawley rats (Charles River Laboratories, Wilmington, Mass.) weighing 230-250 g were used for the experiments. The rats were housed with laboratory chow and water ad libitum prior to the study. The rats were fasted for 24 hours with free access to water and then dosed by oral gavage with vehicle or with test compounds given at a volume of 0.5 mL/100 g. Food was withheld for 18 hours after the initial dosing. Rats were euthanized by CO2 eighteen hours after dosing. The stomachs were dissected along the greater curvature, washed with a directed stream of 0.9% saline and pinned open on a sylgard based petri dish for examination of the hemorrhagic lesion. Gastric lesion score was expressed in mm and calculated by summning the length of each lesion.

[2] = tested on: carrageenan rat paw edema; assay: rat paw edema test (antiinflammatory activity); type: in vivo; conditions: ratio of activity relative to the parent NSAID; oral gavage one hour prior to carrageenan; paw volume three hours later; male Sprague-Dawley rats
Description: The rat paw edema test was used to measure antiinflammatory activity. The rat paw edema test was performed according to the method of Winter et al, Proc. Soc. Exp. Biol. Med. 111: 544-547, 1962. Male Sprague-Dawley rats (250-275 g) were fasted overnight and dosed by oral gavage with vehicle or suspensions of compound one hour prior to the subplantar injection of 50 μl of 1% suspension of carrageenan. Three hours later, the paw volume was measured and compared with the initial volume measured immediately after carrageenan injection.

[3] = ratio of activity relative to the parent NSAID, oral gavage, fasted rats, eighteen hours after dosing
[4] = 100 μmole/Kg, ratio of activity relative to the parent NSAID, oral gavage, fasted rats, eighteen hours after dosing

| melting point | Relative Activity Gastric Lesion (gastric lesion; rat, in vivo, po) | Relative Activity Gastric Lesion (gastric lesion; [4]) | Molecule | Relative Activity Analgesia [1] | Relative Activity Gastric Lesion (gastric lesion; [3]) | Relative Activity Antiinflammation [2] |
| --- | --- | --- | --- | --- | --- | --- |
| 130 °C | – | – | CN1CCC(CCOC(=O)Cc2ccccc2Nc2c(Cl)cccc2Cl)(SN=O)CC1 (as salt: citrate) [Example 13, 2-[1-Methyl-4-(nitrosothio)-4-piperidyl]ethyl 2-{2-[(2,6-dichlorophenyl)amino]phenyl}acetate citrate] | – | – | – |
| – | 0.01 | – | CN(CCCOC(=O)Cc1ccccc1Nc1c(Cl)cccc1Cl)CC1(SN=O)CCCCC1 [Example 4, 3-{Methyl{[(nitrosothio)cyclohexyl]methyl}amino)propyl 2-{2-[(2,6-dichlorophenyl)amino]phenyl}acetate] | 0.9 | – | 1.3 |
| – | – | 0.1 (100 μmole/Kg) | CN1CCC(CCOC(=O)Cc2ccccc2Nc2c(Cl)cccc2Cl)(SN=O)CC1 [Example 13, 2-[1-Methyl-4-(nitrosothio)-4-piperidyl]ethyl 2-{2-[(2,6-dichlorophenyl)amino]phenyl}acetate citrate] | – | – | 1 |
| – | – | 0.1 (100 μmole/Kg) | COc1ccc2cc([C@H](C)C(=O)OCCN(C)CC3(SN=O)CCN(C)CC3)ccc2c1.Cl [Example 22, 2-(Methyl{[1-methyl-4-(nitrosothio)(4-piperidyl)]methyl}amino)ethyl (2S)-2-(6-methoxy(2-naphthyl))propanoate hydrochloride] | 1 | – | 1 |
| – | – | 0.02 (100 μmole/Kg) | CN(CCSC(=O)Cc1ccccc1Nc1c(Cl)cccc1Cl)CC(C)(C)SN=O.Cl [Example 31, 2-{2-[(2,6-Dichlorophenyl)amino]phenyl}-1-(2-{methyl[2-methyl-2-(nitrosothio)propyl]amino}ethylthio)ethan-1-one hydrochloride] | 1 | – | 1 |
| 116 to 117 °C | – | – | COc1ccc2cc([C@H](C)C(=O)OCCCN3C(=O)OC[C@H]3C(C)(C)SN=O)ccc2c1 [Example 44, 3-{(4S)-4-[1-Methyl-1-(nitrosothio)ethyl]-2-oxo-1,3-oxazolidin-3-yl}propyl (2S)-2-(6-methoxy(2-naphthyl))propanoate] | – | – | – |
| > 180 °C (dec.) | – | – | COc1ccc2cc([C@H](C)C(=O)OC[C@@H]3NC(=O)[C@@H](C(C)(C)SN=O)NC3=O)ccc2c1 [Example 47, {(2S,5S)-5-[1-Methyl-1-(nitrosothio)ethyl]-3,6-dioxopiperazin-2-yl}methyl (2S)-2-(6-methoxy(2-naphthyl))propanoate] | – | – | – |

Further lines, the molecule ahead of its results:

| Molecule | melting point | Relative Activity Gastric Lesion (gastric lesion; rat, in vivo, po) | Relative Activity Gastric Lesion (gastric lesion; [4]) | Relative Activity Analgesia [1] | Relative Activity Gastric Lesion (gastric lesion; [3]) | Relative Activity Antiinflammation [2] |
| --- | --- | --- | --- | --- | --- | --- |
| 2-{2-[(2,6-Dichlorophenyl)amino]phenyl}-1-[2-(methyl{[(nitrosothio) cyclohexyl]methyl}amino)ethylthio]ethan-1-one [Example 32] | – | – | – | 1 | – | – |
| O=C(O)Cc1ccccc1Nc1c(Cl)cccc1Cl [Diclofenac, diclofenac, reference compound] | – | – | – | 1 | 1 | 1 |
| CC1(SN=O)CCN(CCOC(=O)Cc2ccccc2Nc2c(Cl)cccc2Cl)CC1.Cl [Example 1, 2-[4-Methyl-4-(nitrosothio)piperidyl]ethyl 2-{2-[(2,6-dichlorophenyl)amino]phenyl}acetate hydrochloride] | – | – | – | 1.5 | 0.1 | 1.2 |
| CN(CCOC(=O)Cc1ccccc1Nc1c(Cl)cccc1Cl)CC1(SN=O)CCCCC1.Cl [Example 2, 2-(Methyl{[(nitrosothio)cyclohexyl]methyl}amino)ethyl 2-{2-[(2,6-dichlorophenyl)amino]phenyl}acetate hydrochloride] | – | – | – | 1 | 0.02 | 1.2 |
| Cl.O=NSC1(CCOC(=O)Cc2ccccc2Nc2c(Cl)cccc2Cl)CCNCC1 [Example 6, 2-[4-(Nitrosothio)-4-piperdyl]ethyl 2-{2-[(2,6-dichlorophenyl)amino]phenyl}acetate hydrochloride] | – | – | – | – | 0.02 | – |
| CC(C)(CN1CCN(CCOC(=O)Cc2ccccc2Nc2c(Cl)cccc2Cl)CC1)SN=O.O=C(O)CC(O)(CC(=O)O)C(=O)O [Example 8, 2-{4-[2-Methyl-2-(nitrosothio)propyl]piperazinyl}ethyl 2-{2-[(2,6-dichlorophenyl)amino]phenyl}acetate citrate] | – | – | – | 1.2 | 0.04 | 1.4 |
| CN1CCC(CN(C)CCCOC(=O)Cc2ccccc2Nc2c(Cl)cccc2Cl)(SN=O)CC1 [Example 12, 3-(Methyl{[1-methyl-4-(nitrosothio)(4-piperidyl)]methyl}amino)propyl 2-{2-[(2,6-dichlorophenyl)amino]pheny}acetate] | – | – | – | – | 0.06 | – |
| COc1ccc2cc([C@H](C)C(=O)OCCC3(SN=O)CCN(C)CC3)ccc2c1.O=C(O)CC(O)(CC(=O)O)C(=O)O [Example 15, 2-[1-Methyl-4-(nitrosothio)-4-piperidyl]ethyl (2S) 2-(6-methoxy(2-naphthyl)) propanoate citrate] | – | – | 0.1 (100 μmole/Kg) | 1 | – | 1 |
| COc1ccc2c(c1)c(CC(=O)OCCC1(SN=O)CCN(C)CC1)c(C)n2C(=O)c1ccc(Cl)cc1.O=C(O)CC(O)(CC(=O)O)C(=O)O [Example 17, 2-[1-Methyl-4-(nitrosothio)-4-piperidyl]ethyl 2{1-[(4-chlorophenyl)carbonyl]-5-methoxy-2-methylindol-3-yl}acetate citrate] | – | – | <0.07 (100 μmole/Kg) | 1 | – | – |
| CN(Cc1ccc(OC(=O)Cc2ccccc2Nc2c(Cl)cccc2Cl)cc1)CC(C)(C)SN=O [Example 33, 4-({Methyl[2-methyl-2-(nitrosothio)propyl]amino}methyl)phenyl 2-{2-[(2,6-dichlorophenyl)amino]phenyl}acetate] | – | – | – | 1 | – | 1 |
